{
  "source": "patent US12655125B2",
  "about": "(SIRONAX LTD., priority 2020, dated 2026)",
  "data": [
    {"tested_on": "HT-29 cells", "assay": "HT29 Cells 0FBS Assay In Vitro (TNF-α/SMAC mimetic/zVAD-FMK induced necroptosis, CellTiter-Glo cell viability)", "assay_type": "cell-based", "conditions": "Homo sapiens, HT-29, 20 h, read-out: Cell activity (EC50) of Compounds 117-281", "in_short": "(§1)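 HT-29 cells (5,000/well, seeded overnight) in serum-free McCoy's 5A were stimulated with TNF-α 10 ng/ml, SMAC mimetic 6 μM and zVAD-FMK 10 μM to induce necroptosis. Compound added as 10-point 3-fold series for 20 h at 37° C. CellTiter-Glo luminescence gives viability; EC50 is geometric mean of duplicate dose-responses.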", "units": {"EC50": "nM"}, "values": [
      {"smiles": "Cc1nn(CCO)c(C)c1-c1cc(OC2CN(C(=O)N3N=CC[C@H]3c3cc(F)cc(F)c3)C2)c(F)cn1", "note": "[compound 117, (S)-(5-(3,5-difluorophenyl)-4,5-dihydro-1H-pyrazol-1-yl)(3-((5-fluoro-2-(1-(2-hydroxyethyl)-3,5-dimethyl-1H-pyrazol-4-yl)pyridin-4-yl)oxy)azetidin-1-yl)methanone]", "EC50": "0.1 to 100"}
    ]},
    {"tested_on": "HT-29 cells", "assay": "HT29 Cells 0FBS Assay In Vitro (TNF-α/SMAC mimetic/zVAD-FMK induced necroptosis, CellTiter-Glo cell viability)", "assay_type": "cell-based", "conditions": "Homo sapiens; HT-29 cells, FBS free medium, TNF-α (10 ng/ml), SMAC mimetic (6 uM), zVAD-FMK (10 μM), 20 hours; geometric mean EC50; read-out: Cell activity (EC50) of Compounds 1-116", "in_short": "as §1", "units": {"EC50": "nM"}, "values": [
      {"smiles": "Cc1nn(C)cc1-c1cc(OC2CN(C(=O)N3N=CC[C@H]3c3cc(F)cc(F)c3)C2)c(F)cn1", "note": "[compound 38, (S)-(5-(3,5-difluorophenyl)-4,5-dihydro-1H-pyrazol-1-yl)(3-((2-(1,3-dimethyl-1H-pyrazol-4-yl)-5-fluoropyridin-4-yl)oxy)azetidin-1-yl)methanone]", "EC50": "0.1 to 100"},
      {"smiles": "Cc1cnn(C)c1-c1ccc(F)c(OC2CN(C(=O)N3N=CC[C@H]3c3cc(F)cc(F)c3)C2)c1", "note": "[compound 112, (S)-(5-(3,5-difluorophenyl)-4,5-dihydro-1H-pyrazol-1-yl)(3-(5-(1,4-dimethyl-1H-pyrazol-5-yl)-2-fluorophenoxy)azetidin-1-yl)methanone]", "EC50": "0.1 to 100"},
      {"smiles": "Cn1ncnc1-c1ccc(F)c(OC2CN(C(=O)N3N=CC[C@H]3c3cc(F)cc(F)c3)C2)n1", "note": "[compound 28, (S)-(5-(3,5-difluorophenyl)-4,5-dihydro-1H-pyrazol-1-yl)(3-((3-fluoro-6-(1-methyl-1H-1,2,4-triazol-5-yl)pyridin-2-yl)oxy)azetidin-1-yl)methanone]", "EC50": "0.1 to 100"},
      {"smiles": "Cn1ccc(-c2ncc(F)c(OC3CN(C(=O)N4N=CC[C@H]4c4cc(F)cc(F)c4)C3)n2)n1", "note": "[compound 39, (S)-(5-(3,5-difluorophenyl)-4,5-dihydro-1H-pyrazol-1-yl)(3-((5-fluoro-2-(1-methyl-1H-pyrazol-3-yl)pyrimidin-4-yl)oxy)azetidin-1-yl)methanone]", "EC50": "100 to 1000"},
      {"smiles": "COc1cnn(C)c1-c1cc(OC2CN(C(=O)N3N=CC[C@H]3c3cc(F)cc(F)c3)C2)c(F)cn1", "note": "[compound 50, (S)-(5-(3,5-difluorophenyl)-4,5-dihydro-1H-pyrazol-1-yl)(3-((5-fluoro-2-(4-methoxy-1-methyl-1H-pyrazol-5-yl)pyridin-4-yl)oxy)azetidin-1-yl)methanone]", "EC50": "0.1 to 100"},
      {"smiles": "Cc1n[nH]c(C)c1-c1ncc(F)c(OC2CN(C(=O)N3N=CC[C@H]3c3cc(F)cc(F)c3)C2)n1", "note": "[compound 91, (S)-(5-(3,5-difluorophenyl)-4,5-dihydro-1H-pyrazol-1-yl)(3-((2-(3,5-dimethyl-1H-pyrazol-4-yl)-5-fluoropyrimidin-4-yl)oxy)azetidin-1-yl)methanone]", "EC50": "0.1 to 100"},
      {"smiles": "N#Cc1cccn1-c1ncc(F)c(OC2CN(C(=O)N3N=CC[C@H]3c3cc(F)cc(F)c3)C2)n1", "note": "[compound 106, (S)-1-(4-((1-(5-(3,5-difluorophenyl)-4,5-dihydro-1H-pyrazole-1-carbonyl)azetidin-3-yl)oxy)-5-fluoropyrimidin-2-yl)-1H-pyrrole-2-carbonitrile]", "EC50": "0.1 to 100"},
      {"smiles": "Cn1ncnc1-c1ncc(F)c(OC2CN(C(=O)N3N=CC[C@H]3c3cc(F)cc(F)c3)C2)n1", "note": "[compound 30, (S)-(5-(3,5-difluorophenyl)-4,5-dihydro-1H-pyrazol-1-yl)(3-((5-fluoro-2-(1-methyl-1H-1,2,4-triazol-5-yl)pyrimidin-4-yl)oxy)azetidin-1-yl)methanone]", "EC50": "0.1 to 100"},
      {"smiles": "Cc1ncn(C)c1-c1cc(OC2CN(C(=O)N3N=CC[C@H]3c3cc(F)cc(F)c3)C2)c(F)cn1", "note": "[compound 45, (S)-(5-(3,5-difluorophenyl)-4,5-dihydro-1H-pyrazol-1-yl)(3-((2-(1,4-dimethyl-1H-imidazol-5-yl)-5-fluoropyridin-4-yl)oxy)azetidin-1-yl)methanone]", "EC50": "0.1 to 100"},
      {"smiles": "Cn1nccc1-c1ccc(F)c(OC2CN(C(=O)N3N=CC[C@H]3c3cc(F)cc(F)c3)C2)n1", "note": "(stereo in doubt) [compound 1, (5-(3,5-difluorophenyl)-4,5-dihydro-1H-pyrazol-1-yl)(3-((3-fluoro-6-(1-methyl-1H-pyrazol-5-yl)pyridin-2-yl)oxy)azetidin-1-yl)methanone]", "EC50": "0.1 to 100"}
    ]},
    {"tested_on": "HT-29 cells", "assay": "HT29 Cells 0FBS Assay In Vitro (TNF-α/SMAC mimetic/zVAD-FMK induced necroptosis, CellTiter-Glo cell viability)", "assay_type": "cell-based", "conditions": "Homo sapiens; HT-29 cells, FBS free medium, TNF-α (10 ng/ml), SMAC mimetic (6 uM), zVAD-FMK (10 μM), 20 hours; geometric mean EC50; read-out: Cell activity (EC50) of Compounds 117-281", "in_short": "as §1", "units": {"EC50": "nM"}, "values": [
      {"smiles": "Cc1c(-c2cc(OC3CN(C(=O)N4N=CC[C@H]4c4cc(F)cc(F)c4)C3)c(F)cn2)c(C)n(C)c1N", "note": "[compound 206, (S)-(3-((2-(5-amino-1,2,4-trimethyl-1H-pyrrol-3-yl)-5-fluoropyridin-4-yl)oxy)azetidin-1-yl)(5-(3,5-difluorophenyl)-4,5-dihydro-1H-pyrazol-1-yl)methanone]", "EC50": "0.1 to 100"},
      {"smiles": "Cn1ncc(NCCN2CCOCC2)c1-c1cc(OC2CN(C(=O)N3N=CC[C@H]3c3cc(F)cc(F)c3)C2)c(F)cn1", "note": "[compound 120, (S)-(5-(3,5-difluorophenyl)-4,5-dihydro-1H-pyrazol-1-yl)(3-((5-fluoro-2-(1-methyl-4-((2-morpholinoethyl)amino)-1H-pyrazol-5-yl)pyridin-4-yl)oxy)azetidin-1-yl)methanone]", "EC50": "0.1 to 100"},
      {"smiles": "Cc1nn(-c2cc(OC3CN(C(=O)N4N=CC[C@H]4c4cc(F)cc(F)c4)C3)c(F)cn2)c(C)c1C(=O)NC1CCC1", "note": "[compound 249, (S)—N-cyclobutyl-1-(4-((1-(5-(3,5-difluorophenyl)-4,5-dihydro-1H-pyrazole-1-carbonyl)azetidin-3-yl)oxy)-5-fluoropyridin-2-yl)-3,5-dimethyl-1H-pyrazole-4-carboxamide]", "EC50": "0.1 to 100"},
      {"smiles": "CNS(=O)(=O)c1c(C)nn(-c2cc(OC3CN(C(=O)N4N=CC[C@H]4c4cc(F)cc(F)c4)C3)c(F)cn2)c1C", "note": "[compound 230, (S)-1-(4-((1-(5-(3,5-difluorophenyl)-4,5-dihydro-1H-pyrazole-1-carbonyl)azetidin-3-yl)oxy)-5-fluoropyridin-2-yl)-N,3,5-trimethyl-1H-pyrazole-4-sulfonamide]", "EC50": "0.1 to 100"},
      {"smiles": "Cc1c(C#N)nn(C)c1-c1cc(OC2CN(C(=O)N3N=CC[C@H]3c3cc(F)cc(F)c3)C2)c(F)cn1", "note": "[compound 150, (S)-5-(4-((1-(5-(3,5-difluorophenyl)-4,5-dihydro-1H-pyrazole-1-carbonyl)azetidin-3-yl)oxy)-5-fluoropyridin-2-yl)-1,4-dimethyl-1H-pyrazole-3-carbonitrile]", "EC50": "0.1 to 100"},
      {"smiles": "CSc1c(C)nn(-c2cc(OC3CN(C(=O)N4N=CC[C@H]4c4cc(F)cc(F)c4)C3)c(F)cn2)c1C", "note": "[compound 203, (S)-(5-(3,5-difluorophenyl)-4,5-dihydro-1H-pyrazol-1-yl)(3-((2-(3,5-dimethyl-4-(methylthio)-1H-pyrazol-1-yl)-5-fluoropyridin-4-yl)oxy)azetidin-1-yl)methanone]", "EC50": "0.1 to 100"},
      {"smiles": "Cc1nn(-c2cc(OC3CN(C(=O)N4N=CC[C@H]4c4cc(F)cc(F)c4)C3)c(F)cn2)c(C)c1C(=O)N[C@H]1C[C@@H](O)C1", "note": "[compound 254, 1-(4-((1-((S)-5-(3,5-difluorophenyl)-4,5-dihydro-1H-pyrazole-1-carbonyl)azetidin-3-yl)oxy)-5-fluoropyridin-2-yl)-N-((1s,3s)-3-hydroxycyclobutyl)-3,5-dimethyl-1H-pyrazole-4-carboxamide]", "EC50": "0.1 to 100"},
      {"smiles": "Cc1c(NC(C)C)nn(C)c1-c1cc(OC2CN(C(=O)N3N=CC[C@H]3c3cc(F)cc(F)c3)C2)c(F)cn1", "note": "[compound 162, (S)-(5-(3,5-difluorophenyl)-4,5-dihydro-1H-pyrazol-1-yl)(3-((5-fluoro-2-(3-(isopropylamino)-1,4-dimethyl-1H-pyrazol-5-yl)pyridin-4-yl)oxy)azetidin-1-yl)methanone]", "EC50": "0.1 to 100"},
      {"smiles": "CCOC(=O)c1c(C)cc(C)n1-c1cc(OC2CN(C(=O)N3N=CC[C@H]3c3cc(F)cc(F)c3)C2)c(F)cn1", "note": "[compound 128, Ethyl (S)-1-(4-((1-(5-(3,5-difluorophenyl)-4,5-dihydro-1H-pyrazole-1-carbonyl)azetidin-3-yl)oxy)-5-fluoropyridin-2-yl)-3,5-dimethyl-1H-pyrrole-2-carboxylate]", "EC50": "0.1 to 100"},
      {"smiles": "Cc1nn(-c2cc(OC3CN(C(=O)N4N=CC[C@H]4c4cc(F)cc(F)c4)C3)c(F)cn2)c(C)c1S(=O)(=O)NCCO", "note": "[compound 244, (S)-1-(4-((1-(5-(3,5-difluorophenyl)-4,5-dihydro-1H-pyrazole-1-carbonyl)azetidin-3-yl)oxy)-5-fluoropyridin-2-yl)-N-(2-hydroxyethyl)-3,5-dimethyl-1H-pyrazole-4-sulfonamide]", "EC50": "0.1 to 100"},
      {"smiles": "Cc1nn(-c2cc(OC3CN(C(=O)N4N=CC[C@H]4c4cc(F)cc(F)c4)C3)c(F)cn2)c(C)c1C(=O)NCCO", "note": "[compound 214, (S)-1-(4-((1-(5-(3,5-difluorophenyl)-4,5-dihydro-1H-pyrazole-1-carbonyl)azetidin-3-yl)oxy)-5-fluoropyridin-2-yl)-N-(2-hydroxyethyl)-3,5-dimethyl-1H-pyrazole-4-carboxamide]", "EC50": "0.1 to 100"},
      {"smiles": "Cc1nc(C#N)c(C)n1-c1cc(OC2CN(C(=O)N3N=CC[C@H]3c3cc(F)cc(F)c3)C2)c(F)cn1", "note": "[compound 199, (S)-1-(4-((1-(5-(3,5-difluorophenyl)-4,5-dihydro-1H-pyrazole-1-carbonyl)azetidin-3-yl)oxy)-5-fluoropyridin-2-yl)-2,5-dimethyl-1H-imidazole-4-carbonitrile]", "EC50": "0.1 to 100"},
      {"smiles": "COCc1c(C)nn(-c2cc(OC3CN(C(=O)N4N=CC[C@H]4c4cc(F)cc(F)c4)C3)c(F)cn2)c1C", "note": "[compound 155, (S)-(5-(3,5-difluorophenyl)-4,5-dihydro-1H-pyrazol-1-yl)(3-((5-fluoro-2-(4-(methoxymethyl)-3,5-dimethyl-1H-pyrazol-1-yl)pyridin-4-yl)oxy)azetidin-1-yl)methanone]", "EC50": "0.1 to 100"},
      {"smiles": "Cc1n[nH]c(C)c1-c1ccc(F)c(OC2CN(C(=O)N3N=CC[C@H]3c3cc(F)cc(F)c3)C2)c1", "note": "[compound 198, (S)-(5-(3,5-difluorophenyl)-4,5-dihydro-1H-pyrazol-1-yl)(3-(5-(3,5-dimethyl-1H-pyrazol-4-yl)-2-fluorophenoxy)azetidin-1-yl)methanone]", "EC50": "0.1 to 100"}
    ]}
  ]
}
